These results are taken from paper PMC7790557, “Pleiotropic Properties of Amphiphilic Dihydropyridines, Dihydropyridones, and Aminovinylcarbonyl Compounds” (Oxidative Medicine and Cellular Longevity, 2020).

Like-named read-outs stand apart in the source and are kept apart here. Bounds are passed on as bounds.

A short description of data set [1]: Cytotoxicity, crystal violet (CV) assay, HT-1080. The settings on record: human.
Data set [2] concerns HT-1080 (human lung fibrosarcoma). Description: Cytotoxicity, crystal violet (CV) assay, HT-1080. As to conditions: Homo sapiens, HT-1080, 72 h, read-out: HT-1080 IC50 (CV).
The subject of data set [3] is NIH3T3 (mouse embryonic fibroblast). The data set can be described thus: Basal cytotoxicity test, Neutral Red Uptake (NRU) assay. The settings on record: for IC50: Mus musculus, NIH3T3, 24 h.
Description: The NRU cytotoxicity assay procedure is based on the ability of viable cells to incorporate and bind neutral red, a supravital dye.
Balb/c NIH 3T3 (mouse Swiss albino embryo fibroblast, ATCC® CRL-1658™) cells (9000 cells/well) were placed into 96-well plates for 24 h in Dulbecco's modified Eagle's medium (DMEM) containing 5% fetal bovine serum. Then, the cells were exposed to the test compound over a range of seven concentrations (1000, 316, 100, 31, 10, 3, and 1 μg/ml) for 24 h. Untreated cells were used as a control. After 24 h, the medium was removed from all plates. Then, 150 μl of neutral red solution was added (0.05 mg/ml NR in DMEM 24 h preincubated at 37°C and then filtered before use through a 0.22 μm syringe filter). Plates were incubated for 3 h, and then, the cells were washed three times with PBS. The dye within viable cells was released by extraction with a mixture of acetic acid, ethanol, and water (1 : 50 : 49). The absorbance of neutral red was measured using a spectrophotometer multiplate reader (Tecan Infinite M1000) at 540 nm. The optical density (OD) was calculated using the following formula: OD (treated cells) × 100/OD (control cells). The IC50 values were calculated using the GraphPad Prism® 3.0 program.
Data set [4] has as its system MH-22A (mouse hepatoma). The data set can be described thus: Cytotoxicity, crystal violet (CV) assay, MH-22A. Format: cell-based. As to conditions: Mus musculus, read-out: MH-22A IC50 (CV). The method, then:
(§1) After incubation, the staining solution was removed. The cells were washed 4 times with water.

The nature of data set [5]: Cytotoxicity, crystal violet (CV) assay, MH-22A. In kind it is cell-based, mouse. The settings on record: mouse, summarises CV and MTT values, read-out: cytotoxicity towards MH-22A cells; for IC50 at 72 h: MH-22A cells (hepatoma). The procedure:
as §1

The nature of data set [6]: Electrochemical oxidation potentials, cyclic voltammetry. In kind it is physicochemical. The settings on record: glassy carbon electrode, dry acetonitrile; for Oxidation potential E^ox: Table 4, vs Ag/Ag+, 0.1 M TBABF4, tested as perchlorates; for electrooxidation potential: cyclic voltammetry. The procedure:
A stationary glassy carbon disk electrode (d = 0.5 mm) served as the working electrode, while the counterelectrode was a Pt wire. The oxidation potentials were measured relative to a Ag/Ag^+ reference electrode. Acetonitrile was dried over P2O5 and distilled; the distillate was stored over CaH2 and redistilled just before use. Recrystallized tetrabutylammonium tetrafluoroborate (TBABF4) was used as a supporting electrolyte at 0.1 M concentration.
The electrochemical oxidation of the selected compounds studied in this work was performed by cyclic voltammetry on a stationary glassy carbon electrode in dry acetonitrile; the data is presented in Table 4. The perchlorates of the tested amphiphiles were obtained from the corresponding bromides by treating their abs. MeOH solutions with excess of conc. HClO4 according to the procedure elaborated by Turovska et al..

Data set [7] concerns HT-1080 (human lung fibrosarcoma). Description: Cytotoxicity, MTT assay, HT-1080. In kind it is cell-based. As to conditions: Homo sapiens, read-out: HT-1080 IC50 (MTT). An excerpt:
(§2) Reduction takes place only when mitochondrial reductase enzymes are active, and therefore, conversion is directly related to the number of viable cells which can be quantified by the absorbance of the solution (between λ = 500 and 600 nm) using a spectrophotometer.
In general terms: Formazan colour is commonly taken as a measure of viable cells.

In data set [8] the test system is MH-22A (mouse hepatoma). Description: Cytotoxicity, MTT assay, MH-22A. As to conditions: Mus musculus, read-out: MH-22A IC50 (MTT). Format: cell-based.
Description: as §2

For data set [9] the following is noted: cited from earlier work.
The conditions of data set [10]: previous results; cited from earlier work.
The next data set relates to NIH3T3. Description: in vitro. The settings on record: mouse.
Data set [11] deals with cancer cell lines HT-1080 and MH-22A. The data set can be described thus: in vitro. In kind it is cell-based. The procedure: as §1
Another data set is described as follows: in vitro. Format: cell-based. The settings on record: human and mouse; summarises both cell lines, CV and MTT; read-out: cytotoxicity on cancer cell lines HT-1080 and MH-22A. The method, then: as §1
[12] abbreviates: read-out: NIH3T3 IC50 (NR), Table 1, 24 h exposure.
Where [13] appears, read: HT-1080, Table 1, 72 h exposure.
Setting [14] is: HT-1080, Table 2, 72 h exposure.

`O=C(OCCCCCCCCCCCC(F)(F)F)C1=C(C[n+]2ccccc2)NC(C[n+]2ccccc2)=C(C(=O)OCCCCCCCCCCCC(F)(F)F)C1c1ccccc1.[O-][Cl+3]([O-])([O-])[O-].[O-][Cl+3]([O-])([O-])[O-]` [compound 22, 1,1'-((4-phenyl-3,5-bis(((12,12,12-trifluorododecyl)oxy)carbonyl)-1,4-dihydropyridine-2,6-diyl)bis(methylene))bis(pyridin-1-ium) diperchlorate]: the IC50 at 72 h in data set [1] (HT-1080 cells (fibrosarcoma)) was in the range of 10 to 18 µg/mL; in data set [5], 10 to 19 µg/mL. In addition, the IC50 in data set [2] is 18 ± 5 µg/mL; in data set [3] (setting [12]) it was 16 ± 3 µg/mL; with MH-22A (mouse hepatoma) [4] (Table 1, 72 h exposure) it was 10 ± 1 µg/mL; in data set [7] (setting [13]) it was 10 ± 2 µg/mL; in the data set with MH-22A (mouse hepatoma) [8] (Table 1, 72 h exposure), 19 ± 5 µg/mL. In addition, in data set [6], the “Oxidation potential E^ox” value was determined as 1.57 V.
In the case of `CCCCCCCCCCCCOC(=O)C1=C(C[n+]2ccc(N(C)C)cc2)NC(C[n+]2ccc(N(C)C)cc2)=C(C(=O)OCCCCCCCCCCCC)C1c1ccccc1.[Br-].[Br-]` [compound 13, 1,1'-((3,5-Bis((dodecyloxy)carbonyl)-4-phenyl-1,4-dihydropyridine-2,6-diyl)bis(methylene))bis(4-(dimethylamino)pyridin-1-ium) dibromide], the IC50 came out at 10 ± 1 µg/mL in data set [2]; 119 ± 13 µg/mL in data set [3] (read-out: NIH3T3 IC50 (NR)); 6 ± 2 µg/mL in the data set with MH-22A (mouse hepatoma) [4] (Table 1, 72 h exposure); 3 ± 0.6 µg/mL in data set [7] (setting [13]); 10 ± 3 µg/mL in the data set with MH-22A (mouse hepatoma) [8] (Table 1, 72 h exposure). Further, the “antiradical activity (ARA), DPPH free radical scavenging” value in [9] (untreated DPPH level designated 100%) is 27%.
Take `CCOC(=O)C1=C(C[n+]2ccccc2)NC(C[n+]2ccccc2)=C(C(=O)OCC)C1c1ccccc1.[Br-].[Br-]` [compound 1, 1,1'-((3,5-Bis(ethoxycarbonyl)-4-phenyl-1,4-dihydropyridine-2,6-diyl)bis(methylene))-bis(pyridin-1-ium) dibromide]: the IC50 in data set [2] is more than 100 µg/mL; in [3] (read-out: NIH3T3 IC50 (NR)) it was more than 1000 µg/mL; in the data set on MH-22A (mouse hepatoma) [4] (Table 1, 72 h exposure) it was more than 100 µg/mL; in data set [7] (setting [13]), more than 100 µg/mL; in the data set with MH-22A (mouse hepatoma) [8] (Table 1, 72 h exposure), more than 100 µg/mL. Moreover, the electrochemical oxidation potential in [10] is 1.7 V. Moreover, the “Oxidation potential E^ox” value in [6] is listed as 1.57 V. In addition, the electrooxidation potential in data set [6] is listed as 1.57–1.58 V. In addition, the “LD50 (calculated, NIH3T3)” value in the data set on NIH3T3 is given as more than 2000 mg/kg.
Take `O=C(OCCCCCCCCCCCC(F)(F)C(F)(F)C(F)(F)C(F)(F)C(F)(F)C(F)(F)C(F)(F)C(F)(F)F)C1=C(C[n+]2ccccc2)NC(C[n+]2ccccc2)=C(C(=O)OCCCCCCCCCCCC(F)(F)C(F)(F)C(F)(F)C(F)(F)C(F)(F)C(F)(F)C(F)(F)C(F)(F)F)C1c1ccccc1` [compound 25]: the “cytotoxicity to cancer cell lines HT-1080 and MH-22A (in words)” value (shortened to “cytotoxicity”) in data set [11] is given as “undetectable toxicity”. Moreover, in [3], the “toxicity to noncancerous NIH3T3 cells (in words)” value is “low toxicity”.
In the case of `CCCCCCCCCCCCOC(=O)C1=C(C[n+]2ccccc2)NC(C[n+]2ccccc2)=C(C(=O)OCCCCCCCCCCCC)C1c1ccccc1.[Br-].[Br-]` [compound 10, 1,1'-((3,5-Bis((dodecyloxy)carbonyl)-4-phenyl-1,4-dihydropyridine-2,6-diyl)bis(methylene))bis(pyridin-1-ium) dibromide], the IC50 at 72 h in “in vitro” was 3 to 6 µg/mL; in [1], approximately 3 µg/mL. Also, the IC50 in data set [2] was 3 ± 0.5 µg/mL; in data set [3] (read-out: NIH3T3 IC50 (NR)) it was 100 ± 6 µg/mL; with MH-22A (mouse hepatoma) [4] (72 h), 6 ± 1 µg/mL; in data set [5] it was 3 to 6 µg/mL; in [7] (HT-1080, 72 h) it was 3 ± 0.3 µg/mL; in the data set with MH-22A (mouse hepatoma) [8] (72 h), 3 ± 0.8 µg/mL. The “Oxidation potential E^ox” value in data set [6] was 1.58 V. In [6], the electrooxidation potential is 1.57–1.58 V.
`COC(=O)C1=C(C[n+]2ccccc2)N(Cc2ccccc2)C(=O)CC1.[O-][Cl+3]([O-])([O-])[O-]` [compound 29, 1-{[1-Benzyl-3-(methoxycarbonyl)-6-oxo-1,4,5,6-tetrahydropyridin-2-yl]methyl}pyridinium perchlorate]: the “cytotoxicity” value in data set [11] is reported as “inert”. Also, the IC50 was more than 100 µg/mL in data set [2]; 972 ± 27 µg/mL in [3] (read-out: NIH3T3 IC50 (NR), Table 2, 24 h exposure); more than 100 µg/mL in the data set on MH-22A (mouse hepatoma) [4] (Table 2, 72 h exposure); more than 100 µg/mL in data set [7] (setting [14]); more than 100 µg/mL with MH-22A (mouse hepatoma) [8] (Table 2, 72 h exposure). Also, the “Oxidation potential E^ox” value in [6] is recorded as 2.35 V. The electrooxidation potential in data set [6] was 2.35 V.
Regarding `CCCCCCCCCCCCOC(=O)C1=C(C[n+]2ccc(C(F)(F)F)cc2)NC(C[n+]2ccc(C(F)(F)F)cc2)=C(C(=O)OCCCCCCCCCCCC)C1c1ccccc1.[Br-].[Br-]` [compound 21, 1,1'-((3,5-Bis((dodecyloxy)carbonyl)-4-phenyl-1,4-dihydropyridine-2,6-diyl)bis(methylene))bis(4-(trifluoromethyl)pyridin-1-ium) dibromide], the IC50 at 72 h in [1] (HT-1080 cells (fibrosarcoma)) fell in the range of 2 to 4 µg/mL; in data set [5], 19 to 49 µg/mL. The IC50 in data set [2] came to 2 ± 0.3 µg/mL; in data set [3] (read-out: NIH3T3 IC50 (NR)), 12 ± 4 µg/mL; in the data set on MH-22A (mouse hepatoma) [4] (Table 1, 72 h exposure), 49 ± 8 µg/mL; in data set [7] (setting [13]), 4 ± 0.5 µg/mL; in the data set on MH-22A (mouse hepatoma) [8] (Table 1, 72 h exposure), 19 ± 6 µg/mL. Also, the “Oxidation potential E^ox” value in [6] amounted to 1.63 V. The same molecule came in with an electrooxidation potential in [6] of 1.63 V.
Consider `COC(=O)C1=C(C[n+]2ccccc2)NC(=O)CC1c1ccccc1OC(F)F.[Br-]` (stereo not drawn) [compound 28, 1-({4-[2-(Difluoromethoxy)phenyl]-3-(methoxycarbonyl)-6-oxo-1,4,5,6-tetrahydropyridin-2-yl}methyl)pyridinium bromide], for which, in [11], the “cytotoxicity” value is reported as “inert”. In addition, the IC50 was more than 100 µg/mL in data set [2]; 1130 ± 85 µg/mL in data set [3] (read-out: NIH3T3 IC50 (NR)); more than 100 µg/mL in the data set on MH-22A (mouse hepatoma) [4] (Table 2, 72 h exposure); more than 100 µg/mL in data set [7] (setting [14]); more than 100 µg/mL in the data set on MH-22A (mouse hepatoma) [8] (Table 2, 72 h exposure).
As for `CCOC(=O)C1=C(C)NC(C)=C(C(=O)OCC)C1` [Diludin, reference compound], the “antiradical activity (ARA)” value in data set [9] is 40%.
As to `CCCCCCCCCCCCOC(=O)C1=C(C[n+]2ccncc2)NC(C[n+]2ccncc2)=C(C(=O)OCCCCCCCCCCCC)C1c1ccccc1` [compound 16, 1,1'-((3,5-Bis((dodecyloxy)carbonyl)-4-phenyl-1,4-dihydropyridine-2,6-diyl)bis(methylne))bis(pyrazin-1-ium) dibromide], the “cytotoxicity” value in data set [11] is “practically inert”. Also, the IC50 in data set [2] is more than 100 µg/mL; in data set [3] (setting [12]), more than 1000 µg/mL; in the data set with MH-22A (mouse hepatoma) [4] (Table 1, 72 h exposure) it was more than 100 µg/mL; in [7] (setting [13]), more than 100 µg/mL; with MH-22A (mouse hepatoma) [8] (Table 1, 72 h exposure), more than 100 µg/mL. Moreover, the “toxicity to noncancerous NIH3T3 cells (in words)” value in data set [3] is reported as “nontoxic”.
